Biological target: T1, S1 nuclease (S1wt; S1D65N) (Aspergillus oryzae, UniProt P24021)
T1 construct: gene nucS; Endo F1 deglycosylated for crystals; three Zn2+
T1 sequence (P24021 21-287): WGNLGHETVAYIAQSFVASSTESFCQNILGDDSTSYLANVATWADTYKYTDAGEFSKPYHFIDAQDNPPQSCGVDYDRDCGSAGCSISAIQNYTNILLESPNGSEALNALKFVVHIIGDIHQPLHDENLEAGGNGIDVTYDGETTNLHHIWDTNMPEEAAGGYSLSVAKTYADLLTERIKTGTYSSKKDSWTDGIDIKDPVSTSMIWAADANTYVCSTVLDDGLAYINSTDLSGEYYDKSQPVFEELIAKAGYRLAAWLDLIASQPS
Experiment: X-ray crystal structure
Format: binding

Structure (SMILES) | X-ray crystal structure (pH 5.5, zinc cluster, first binding mode, occupancy 0.5, not added (no co-crystallization), also in 5FBB (pH 6.5) and 5FBD (pH 4.2, second mode)) | X-ray crystal structure (pH 4.2, NBS1, shallow mode, with phosphate in zinc cluster, co-crystallized with dC(pS)dC)
O=P(O)(O)O [Pi, phosphate ion] | A phosphate ion inside the zinc cluster in the first binding mode is modeled | –
Nc1ccn([C@H]2C[C@H](O)[C@@H](CO)O2)c(=O)n1 [dCyt, 2'–deoxycytidine] | – | The structure contains one phosphate ion and one molecule of dCyt in the active site
